Consider 21 substances from US20240309360A1, “TRANS-ACTIVATORS AND METHODS AND USE THEREOF” (THE GOVERNING COUNCIL OF THE UNIVERSITY OF TORONTO, priority 2021, published 2024).

This assay relates to EGFP reporter (7×TetO array, basal CMV promoter) in HEK293T reporter cell line. In words: TAD-seq pooled activation screen of 60-aa fragments fused to PYL1. In kind it is cell-based, human. To be noted: for Hit high GFP: high GFP population (top 1%); for logFC high GFP / logFC medium GFP: log 2 fold change of counts, 100 μM ABA 48 hours; for logFC high GFP: sorted high GFP cells (top 1%) vs unsorted cells; for logFC medium GFP: sorted medium GFP cells (top 2-5%) vs unsorted cells; for Hit medium GFP: medium GFP population (top 2-5%). The text has this: A fragment library of 75 activators identified in our screen was generated, using 60 amino-acid tiles every 20 aa such that every amino acid was represented by three different fragments (FIG. 3A). The pooled fragment library was fused to PYL1 and recruited to the same GFP reporter used in the original ORFeome screen (FIG. 3A). […] The GFP positive population was sorted into two independent replicates, and fragments in each population were quantified by sequencing. However, in contrast to the ORFeome screen, both high GFP cells (top 1%) and medium GFP cells (top 2-5%) were sorted to potentially identify transactivators of different strength.
Activation domain tiling library generation. A tiling library was generated from 75 proteins identified as activators in the ORFeome screen. Oligonucleotides containing a 5′ adapter […] (SEQ ID NO: 23) and a 3′ adapter […] (SEQ ID NO: 24) to generate a 5′ adapter ([…]) (SEQ ID NO: 11) and a 3′ adapter ([…]) (SEQ ID NO: 12) were synthesized as pooled libraries (Twist Biosciences). 6×50 μl PCR reactions were set up using NEBNext Ultra II Q5 master mix (New England Biolabs) with 5 nM oligos as template. PCR conditions were optimized to find the lowest cycle with a clean visible product at the expected 300 bp length. The thermocycling condition was an initial 30 s at 98° C., then 2 cycles of 98° C. for 10 s, 63° C. for 20 s, and 72° C. for 15 s, followed by 10 more cycles of 98° C. for 10 s and 72° C. for 30 s with a final extension at 72° C. for 5 min. Primers were designed to have Gateway compatible flanking sequences. The resulting libraries were gel extracted by QIAgen gel extraction kit after loading on a 2% TAE gel for 2 hrs at 60V and subsequently cloned into pDONR221 using 20 separate BP reactions in total of 5 μl reactions. The entry plasmid pool was transformed after an overnight reaction into DHSalpha competent E. coli and incubated overnight on LB agar plates containing kanamycin ([…]). Colonies were collected and plasmid DNA purified. 20 LR reactions were then set up as described in the previous section. Each reaction was transformed into NEB 10-beta chemically competent E. coli and grown on LB agar plates containing carbenicillin ([…]) overnight at 30° C. Colonies were counted to ensure >200-fold coverage at each step of cloning, pooled and maxiprepped.
Pooled activation screens. ORFeome and transactivation tiling libraries tagged at the C-terminus with PYL1 were packaged into lentiviral particles. A clonal EGFP reporter cell line stably co-expressing ABI-dCas9 and a gRNA targeting the promoter were transduced at low multiplicity of infection (MOI) with approximately 30% cell survival after puromycin (1 μg/mL) selection. Untransduced cells under the same condition were fully eliminated. Sufficient cells were transduced to maintain >500 fold coverage of the libraries. Recruitment was induced by treating cells with 100 μM abscisic acid (ABA, Sigma) for 48 hours. In parallel, a control batch of cells were treated with equal total volume of DMSO. Cells were then washed in PBS, treated with dissociation buffer (1 mM EDTA, 10 mM KCl, 150 mM NaCl, 5 mM sodium bicarbonate, 0.1% glucose) and resuspended in flow buffer (5 mM EDTA, 25 mM HEPES pH 7, 1% BSA, PBS). High GFP population for each library, top 1% for ORFeome and two bins of top 1% and the next 4% for the TAD screen, were sorted and their genomic DNA directly extracted using QIAmp DNA Blood Mini Kit (QIAGEN).
TAD sequencing. Performed nested PCR on the purified genomic DNA using primers targeting T7 promoter and PYL1 of the backbone vector in the first step creating a ˜470 bp product. Products of the first reaction were then pooled and amplified for an additional 10 steps using primers targeting outside the Gateway sites creating a ˜300 bp product. Libraries were quantified on Qubit dsDNA Broad Range kit and paired-end sequenced on an Illumina MIseq with a custom PAGE-purified R1 sequencing primer. […]

Take “KLF15-6: 60-aa TAD-seq fragment of KLF15 (GPVAWGPWRRAAAPVKGEHFCLPEFPLGDPDDVPRPFQPTLEEIEEFLEENMEPGVKEVP; listed as Homo sapiens)”: the “Hit high GFP” value is recorded as “hit”, the “logFC high GFP” value was found to be 2.467, the “logFC medium GFP” value is reported as 1.202 and the “Hit medium GFP” value was “hit”.
As to “ELF4-1: 60-aa TAD-seq fragment of ELF4 (MAITLQPSDLIFEFASNGMDDDIHQLEDPSVFPAVIVEQVPYPDLLHLYSGLELDDVHNG; listed as Homo sapiens)”, the “logFC high GFP” value came out at 0.6626, the “logFC medium GFP” value was 0.7287 and the “Hit medium GFP” value is “hit”.
For “SS18L2-2: 60-aa TAD-seq fragment of SS18L2 (QETIQRLLEENDQLIRCIVEYQNKGRGNECVQYQHVLHRNLIYLATIADASPTSTSKAME; listed as Homo sapiens)”, in that order: 1.012, 1.166 and “hit”.
Take “YAF2-6: 60-aa TAD-seq fragment of YAF2 (EKKDKVEKEKSEKETTSKKNSHKKTRPRLKNVDRSSAQHLEVTVGDLTVIITDFKEKTKS; listed as Homo sapiens)”: the “Hit high GFP” value was “hit”, the “logFC high GFP” value is on record as 4.316, the “logFC medium GFP” value is 1.771 and the “Hit medium GFP” value is “hit”.
“ATXN7L3-2: 60-aa TAD-seq fragment of ATXN7L3 (QEIYADLVEDSCLGFCFEVHRAVKCGYFFLDDTDPDSMKDFEIVDQPGLDIFGQVFNQWK; listed as Homo sapiens)”: the “logFC high GFP” value turned out to be 0.7654, the “logFC medium GFP” value was determined as 0.8911 and the “Hit medium GFP” value is given as “hit”.
In the case of “FAM22F-20: 60-aa TAD-seq fragment of FAM22F (PAETKVPEEIPPEVVQEYVDIMEELLGSHPGDTGEPEGQREKGKVEQPQEEDGITSDPGL; listed as Homo sapiens)”, the “Hit high GFP” value is given as “hit”, the “logFC high GFP” value came out at 3.214, the “logFC medium GFP” value stood at 2.101 and the “Hit medium GFP” value is listed as “hit”.
Regarding “MYCBP-1: 60-aa TAD-seq fragment of MYCBP (MAHYKAADSKREQFRRYLEKSGVLDTLTKVLVALYEEPEKPNSALDFLKHHLGAATPENP; listed as Homo sapiens)”, the “logFC high GFP” value came to 1.017, the “logFC medium GFP” value was 0.73 and the “Hit medium GFP” value is “hit”.
The corresponding values for “HOXA2-5: 60-aa TAD-seq fragment of HOXA2 (RGSPVPAGALQPPEYPWMKEKKAAKKTALLPAAAAAATAAATGPACLSHKESLEIADGSG; listed as Homo sapiens)” are 1.684, 2.311 and “hit”.
For the substance “FAM22F-22: 60-aa TAD-seq fragment of FAM22F (EKGKVEQPQEEDGITSDPGLLSYIDKLCSQEDFVTKVEAVIHPRFLEELLSPDPQMDFLA; listed as Homo sapiens)”, the “Hit high GFP” value was “hit”, the “logFC high GFP” value is 4.76, the “logFC medium GFP” value was 2.325 and the “Hit medium GFP” value is “hit”.
Consider “HSF1-24: 60-aa TAD-seq fragment of HSF1 (SGKQLVHYTAQPLFLLDPGSVDTGSNDLPVLFELGEGSYFSEGDGFAEDPTISLLTGSEP; listed as Homo sapiens)”, for which the “logFC high GFP” value was determined as 0.6763, the “logFC medium GFP” value was 0.8092 and the “Hit medium GFP” value is “hit”.
For “JAZF1-1: 60-aa TAD-seq fragment of JAZF1 (MTGIAAASFFSNTCRFGGCGLHFPTLADLIEHIEDNHIDTDPRVLEKQELQQPTYVALSY; listed as Homo sapiens)”, in that order: 0.2848, 0.6639 and “hit”.
The corresponding values for “HSF1-21: 60-aa TAD-seq fragment of HSF1 (MLSSHGFSVDTSALLDLFSPSVTVPDMSLPDLDSSLASIQELLSPQEPPRPPEAENSSPD; listed as Homo sapiens)” are 0.432, 0.8992 and “hit”.
Turning to “FAM22F-23: 60-aa TAD-seq fragment of FAM22F (LSYIDKLCSQEDFVTKVEAVIHPRFLEELLSPDPQMDFLALSQELEQEEGLTLAQLVEKR; listed as Homo sapiens)”, the “Hit high GFP” value is “hit”, the “logFC high GFP” value was 5.822 and the “logFC medium GFP” value is reported as 0.2737.
“KLF6-1: 60-aa TAD-seq fragment of KLF6 (MDVLPMCSIFQELQIVHETGYFSALPSLEEYWQQTCLELERYLQSEPCYVSASEIKFDSQ; listed as Homo sapiens)”: the “Hit high GFP” value is “hit”, the “logFC high GFP” value is recorded as 5.453, the “logFC medium GFP” value is reported as 1.868 and the “Hit medium GFP” value was “hit”.
As to “NEUROG3-5: 60-aa TAD-seq fragment of NEUROG3 (RRSRRKKANDRERNRMHNLNSALDALRGVLPTFPDDAKLTKIETLRFAHNYIWALTQTLR; listed as Homo sapiens)”, the “logFC high GFP” value stood at 0.06039, the “logFC medium GFP” value was 0.6713 and the “Hit medium GFP” value is “hit”.
In the case of “BRD8-24: 60-aa TAD-seq fragment of BRD8 (IDGKEELDLAEKMDIAVSYTGEELDFETVGDIIAIIEDKVDDHPEVLDVAAVEAALSFCE; listed as Homo sapiens)”, the “Hit high GFP” value is “hit”, the “logFC high GFP” value was 1.593, the “logFC medium GFP” value was found to be 1.566 and the “Hit medium GFP” value was “hit”.
On to “HSF1-25: 60-aa TAD-seq fragment of HSF1 (AQPLFLLDPGSVDTGSNDLPVLFELGEGSYFSEGDGFAEDPTISLLTGSEPPKAKDPTVS; listed as Homo sapiens)”, for which the “logFC high GFP” value is 0.7725, the “logFC medium GFP” value is on record as 1.153 and the “Hit medium GFP” value is given as “hit”.
“MYOD1-2: 60-aa TAD-seq fragment of MYOD1 (CSFATTDDFYDDPCFDSPDLRFFEDLDPRLMHVGALLKPEEHSHFPAAVHPAPGAREDEH; listed as Homo sapiens)”: the “logFC high GFP” value is given as 0.7025, the “logFC medium GFP” value is 0.8486 and the “Hit medium GFP” value is “hit”.
For “FAM90A1-19: 60-aa TAD-seq fragment of FAM90A1 (RQPPHSRPCLPTAQACTMSHHPAASHDGAQPLRVLFRRLENGRWSSSLLTAPSFHSPEKP; listed as Homo sapiens)”, the “Hit high GFP” value is reported as “hit”, the “logFC high GFP” value was determined as 2.051, the “logFC medium GFP” value came out at 1.557 and the “Hit medium GFP” value is recorded as “hit”.
With “RELB-3: 60-aa TAD-seq fragment of RELB (SSLSLAVSRSTDELEIIDEYIKENGFGLDGGQPGPGEGLPRLVSRGAASLSTVTLGPVAP; listed as Homo sapiens)”, the “Hit high GFP” value was “hit”, the “logFC high GFP” value was 1.768, the “logFC medium GFP” value is given as 1.803 and the “Hit medium GFP” value is on record as “hit”.
In the case of “KLF7-2: 60-aa TAD-seq fragment of KLF7 (YFSALPSLEETWQQTCLELERYLQTEPRRISETFGEDLDCFLHASPPPCIEESFRRLDPL; listed as Homo sapiens)”, the “logFC high GFP” value is 1.431, the “logFC medium GFP” value came to 1.165 and the “Hit medium GFP” value is reported as “hit”.
